Measured values: patent US8134010B2, “Thiazole-based nitric oxide donors having aryl substituent(s) and uses thereof” (priority 2004, dated 2012)

Legend:
[1] = tested on: cyclic-GMP in isolated aorta of rats; assay: Induction of in vivo nitrate tolerance (cGMP in isolated aorta of rats pre-treated in vivo); set-up: species or system rat; conditions: rats pre-treated in vivo with the same compound
Method: For c-GMP levels and tolerance development, the rat's thoracic aorta was isolated after exposure to the tested compound in vivo, and measured as described above in the in vitro assays.
Male Sprague Dawley rats (220 to 250 grams) were housed under constant temperature and humidity conditions. Light was maintained at a 12/12 light dark cycle. Except for 12 hours before the experiment, when food fasting was initiated, all rats had free access to standard rat pellet diet and tap water. The animals were anesthetized by intraperitoneal injection of ketamine and xylazine combination (50 and 10 milligram per kilogram, respectively). […] The catheters were filled with normal saline solution containing 1000 IU/ml of heparin and plugged with a metal pin. Catheters were externalized to the back of the neck region and secured by a polyester felt disk.
After implantation, the rats were individually housed until they regained their preoperative weight and appeared healthy (3 to 4 days post-operation). At this time point (day 0), an osmotic mini-pump (Alza Corp., Palo Alto, Calif.) delivering constant volume (10 μl/hour) of vehicle or drug was connected to one of the intravenous catheters.
For inducing tolerance to the tested NO-donor according to the present invention, the animals received 200 μg/hour of the tested compound for 16 hours (short-term-induced tolerance). A similar number of animals were processed by the same surgical procedure and received the vehicle alone (10 μl/hour of a solution consisting of 30% ethanol and 30% propylene glycol in sterile distilled water for injection).
At the end of the infusion periods used for the development of tolerance (16 hour), the rats were anesthetized as described above, the two catheters were externalized and the delivering catheters were disconnected from the mini-pump. The abdomen was opened by midline incision and the thoracic aorta were isolated, washed and cleaned from the surrounding tissues. […]

Sprague-Dawley rats = assay: Effect of Pet-120 on mean arterial blood pressure (MABP) after intravenous bolus infusion; assay type: in vivo, rat; conditions: 50 micrograms Pet-120 after 10 micrograms phenylephrine
Method: Male Sprague-Dawley rats weighing 310 grams at the beginning of the experiments were anesthetized with ketamine and xylazine (50 and 10 mg/kg, respectively), and an osmotic miniature pump (model 2002; ALZA Co filled with L-NAME) was canulated to right jugular vien (RJV) and implanted subcutaneously at the dorsum of the neck. L-NAME was infusion from ALZA miniature pump at a rate of 500 ng/minute for 24 hours. One day after the rat was anesthetized again with ketamine and xylazine and the both left jugular vein (LJV) and right common carotid (for MABP monitoring) was canulated. After the rats stabilized, Pet-120 was administered through the LJV (50 μg).
The efficacy of Pet-120, an exemplary NO-donating compound according to some embodiments of the present invention, was assayed as presented hereinabove in animals which were treated with phenylephrine so as to heighten their mean arterial blood pressure.

isolated rat aorta = assay: Cross-tolerance studies on aortic rings (GTN / Pet-12 pre-treatment); assay type: cell-based; conditions: aorta pre-treated with GTN
Method: Cross-tolerance studies were conducted using the same technique described above for measuring vasorelaxation of aortic rings from rats. Two groups of aortic rings samples were pre-treated with GTN, then one group was measured for vasorelaxation by GTN and the second group for vasorelaxation by Pet-12, an exemplary NO-donor according to the present invention. For the opposite cross-tolerance studies, two groups of aortic rings samples were pre-treated with Pet-12, then one group was measured for vasorelaxation by GTN and the second group for vasorelaxation by Pet-12.

Cc1nc(-c2ccc([N+](=O)[O-])cc2)sc1CCO[N+](=O)[O-] [Pet-120, 4-Methyl-5-(2-nitrooxy-ethyl)-2-(4-nitro-phenyl)-thiazole]
tolerance induction by cyclic-GMP accumulation in aorta of rats pre-treated in vivo [1]: absence of tolerance induction | effect on mean arterial blood pressure (MABP) (Sprague-Dawley rats): reducing the MABP to its original levels | vasorelaxation in rings made tolerant to GTN (cross-tolerance) (isolated rat aorta): can even induce vasorelaxation in rat aorta of rats after tolerance has been induced therein by chronic use of GTN
